Key:
[1] = biological target: T1, E3 ubiquitin-ligase Hakai (Mus musculus, UniProt Q9JIY2); test: Hakai-dependent ubiquitination of the E-cadherin complex (immunoprecipitation, 293T cells); type: cell-based; settings: 293T cells transfected with Flag-Hakai, myc-E-cadherin, v-Src, HA-ubiquitin; IP with anti-E-cadherin
T1 construct: expressed in transfected cells; host or cells: HEK293T (293) cells, co-transfected with v-Src and HA-ubiquitin, and in A3 also with myc-E-cadherin
T1 sequence (Q9JIY2 1-491): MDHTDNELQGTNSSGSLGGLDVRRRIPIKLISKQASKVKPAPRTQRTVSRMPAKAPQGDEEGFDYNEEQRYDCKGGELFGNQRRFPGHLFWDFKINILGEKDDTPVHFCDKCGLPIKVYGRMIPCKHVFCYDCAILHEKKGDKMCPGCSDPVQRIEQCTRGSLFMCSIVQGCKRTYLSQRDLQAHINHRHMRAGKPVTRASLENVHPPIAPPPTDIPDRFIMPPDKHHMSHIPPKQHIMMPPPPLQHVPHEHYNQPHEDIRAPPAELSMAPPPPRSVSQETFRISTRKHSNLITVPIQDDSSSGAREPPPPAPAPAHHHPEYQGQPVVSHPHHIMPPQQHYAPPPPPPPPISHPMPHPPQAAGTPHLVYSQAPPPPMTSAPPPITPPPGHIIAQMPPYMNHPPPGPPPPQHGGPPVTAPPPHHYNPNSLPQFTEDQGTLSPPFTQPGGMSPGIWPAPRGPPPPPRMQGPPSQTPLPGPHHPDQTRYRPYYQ
Procedure: For immunoprecipitation experiments, 293 cells were transfected with 3 μg Src, 4 μg Flag-Hakai, and 2 μg HA-ubiquitin and 3 μg E-cadherin with Lipofectamin 2000 (Invitrogen, UK). 24 h after transfection, cells were lysed for 20 min in 1 ml of 1% Triton X-100 lysis buffer (20 mM Tris-HCl pH 7.5, 150 mM NaCl and 1% Triton X-100) containing 10 μg/ml leupeptin, 10 μg/ml aprotinin and 1 mM phenylmethanesulphonyl fluoride (PMSF), supplemented with 10 mM N-ethylmaleimide and 2.5 mM sodium orthovanadate. After centrifugation at 18.000 g for 10 min, the supernatants were immunoprecipitated for 2 h with 2 μg of anti-E-cadherin antibody bound to 60 μl of protein G PLUS-Agarose beads, followed by SDS-polyacrylamide gel electrophoresis (PAGE) and western blotting with the indicated antibodies as previously reported.

[2] = tested on: LoVo colon tumour cell line; test: MTT cell viability assay, LoVo; type: cell-based; settings: 72 h
Procedure: For cytotoxicity assays, 1×10^4 cells were seeded per well into a 96-well plate. After 24 h cells were treated with the indicated inhibitors for 72 h and a MTT colorimetric cell viability assay was performed following manufacturer's instructions (Sigma Aldrich, St Louis, Mo.). Absorbance was measured at 570 and 630 nm using a Multiskan Plus Reader (Nanoquant Infinite M200 Tecan Trading AG, Switzerland). Dose-response curves were designed with Graph Pad Prism Software and the half-maximal inhibitory concentration (IC50) values were calculated. Represented data are the mean±SEM of at least three independent experiments with six replicates per condition.

[3] = tested on: HT-29 cells; test: Immunofluorescence of E-cadherin, HT-29; type: cell-based; settings: 48 h
Procedure: For western blot analysis, cells were treated with the indicated inhibitors for 48 h and the whole cell extracts were obtained as described previously. Twenty micrograms of lysates were resolved on a 10% polyacrilamide SDS-PAGE followed by western blot analysis performed as previously described. For immunofluorescence assays cells were grown for 24 h on glass coverslips and treated with the indicated inhibitors for 48 h. Cells were fixed with 4% PFA for 15 min, permeabilized with 0.5% […] and incubated with E-cadherin antibody for 2 h. Coverslips were incubated with fluorescein-tagged secondary antibody (Dakopatts, Sweden) for […]. Finally coverslips were mounted with ProLong Gold antifade reagent (LifeTech, UK) and images were taken in epifluorescence microscope (Olympus) using 40× objective.

[4] = tested on: Hakai-MDCK cells; test: BrdU proliferation assay, Hakai-MDCK; type: cell-based; settings: 48 h
Procedure: (§1) For BrdU assays, 1×10^4 of indicated cells were plated per well into a 96-well plate. After 24 h, cells were treated with the indicated inhibitors for 48 h. Three independent experiments were plated with six replicates per each condition. Cells were treated with […] BrdU for 2 h. BrdU incorporation into newly synthesized DNA was measured using a cell proliferation colorimetric immunoassay kit according to the manufacturer's instructions (Roche, Switzerland). Results are expressed as mean±S.D. Results are represented as percentage of positive cells (mean±S.D) of three independent experiments.

[5] = tested on: breast cancer MCF7 cell; test: BrdU proliferation assay, MCF7; type: cell-based, human; settings: 48 h
Procedure: as §1

[6] = tested on: liver cancer HepG2 cells; test: BrdU proliferation assay, HepG2; type: cell-based, human; settings: 48 h
Procedure: as §1

[7] = tested on: Hakai-MDCK cells; test: Soft agar-colony formation assay, Hakai-MDCK; type: cell-based; settings: 21 days
Procedure: (§2) Soft agar-colony formation assay was performed on 12-well plates in triplicates at a density of 5×10^3 MDCK and MDCK-Hakai cells/well, or 12×10^3 HT29 cells/well. Cells were seeded in medium with 0.5% low-melting agarose over a layer with 0.75% low-melting agarose (Lonza Rockland, Me., USA). Cells were treated with the indicated inhibitors and DMSO was used as vehicle. Treatment was refreshed every 3 days and, after 21 days for MDCK and MDCK-Hakai cells or 28 days for HT29 cells, number of colonies were quantified. Quantification of five randomly-selected fields of each condition was photographed with a Nikon Eclipse-TI microscope (objective 4×). Experiments were conducted with three triplicates and were repeated three times. Data are represented as mean±SD.

[8] = tested on: MDCK non-transformed cells; test: Soft agar-colony formation assay, MDCK; type: cell-based; settings: 21 days
Procedure: as §2

[9] = tested on: Hakai-MDCK cells; test: Invasion assay, Hakai-MDCK; type: cell-based; settings: treated 48 h before seeding
Procedure: For invasion assays, cells were treated with Hakin-1 or DMSO as vehicle for 48 h using 1% FBS during the last 24 hours. 3×10^5 MDCK, MDCK-Hakai or LoVo cells were seeded in a cell invasion chamber (Cell invasion assaykit, Chemicon International) containing medium with 2% FBS. After 72 hours for MDCK and MDCK-Hakai Invasive and 16 h for LoVo cells, invasive cells invaded that reach the lower chamber containing 30% FBS were fixed and stained with crystal violet (Sigma Aldrich, St Louis, Mo.) following the manufacturer's specifications. For migration assays, HT29 cells were cultured with Hakin-1 or DMSO as vehicle for 48 h, using medium without serum the last 24 h. In the cell migration chamber were seeded 3×10^5 HT29 cells (Cell migration kit, Millipore, Bedford, Mass.) containing medium without serum. After 16 h, migrated cells in the lower chamber containing serum with 30% FBS were stained with crystal violet and counted following the manufacturer's specifications. For both invasion and migration assays cells were counted in five fields photographed with an Olympus microscope using a 20× objective, experiments were performed in triplicates for each condition and the assays were repeated at least three times. Results are expressed as mean±SD.

O=C(O)c1ccc(-n2nnnc2SCC(=O)c2ccc([N+](=O)[O-])cc2)cc1 [Hakin-1, 4-(5-{[2-(4-nitrophenyl)-2-oxoethyl]thiol}-1H-tetrazol-1-yl)benzoic acid]
Hakai-dependent ubiquitination of E-cadherin complex [1]: reduction of Hakai-dependent ubiquitination of E-cadherin complex | cytotoxicity effect (cell viability, MTT) [2]: important inhibitory response | E-cadherin levels at cell-cell contacts (immunofluorescence) [3]: significant increase E-cadherin levels at cell-cell contacts | cell proliferation (BrdU) [4]: suppress proliferation | cell proliferation (BrdU) [5]: inhibits cell proliferation | cell proliferation (BrdU) [6]: inhibits cell proliferation | colony formation (soft agar) [7]: robust inhibition of colony formation | colony formation (soft agar) [8]: no colony formation was detected | cell invasion [9]: decreased cell invasion

— US20220016080A1, “COMPOUNDS THAT SELECTIVELY AND EFFECTIVELY INHIBIT HAKAI-MEDIATED UBIQUITINATION, AS ANTI-CANCER DRUGS” (FUNDACIÓN PROFESOR NOVOA SANTOS, priority 2018, published 2022)
